Read-outs that look alike come from different tables or passages of the source.
Key:
Format in all cases: biochemical
[1] = molecular target: T1, PDE9A2 (Homo sapiens, UniProt O76083); assay: Phosphodiesterase enzyme screening assay, PDE9A2; details: read-out: Band (PDE9A2 IC50)
T1 construct: purchased Reaction Biology Corporation, Malvern, Pa
Summary of the method: (§1)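 Enzyme activity is measured as conversion of fluorescent cGMP (4.0 μM) to 5′-GMP after 1 h at R.T. in pH 7.5 HEPES/MgCl2/DTT buffer. Product is separated from substrate by microfluidic mobility shift, and inhibition is derived by comparison with control wells.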

[2] = molecular target: T2, PDE1A (Homo sapiens, UniProt P54750); assay: Phosphodiesterase enzyme screening assay, PDE1A
T2 construct: purchased Reaction Biology Corporation, Malvern, Pa
Summary of the method: as §1

[3] = molecular target: T3, PDE1B (Homo sapiens, UniProt Q01064); assay: Phosphodiesterase enzyme screening assay, PDE1B
T3 construct: purchased Reaction Biology Corporation, Malvern, Pa
Summary of the method: as §1

[4] = Table 3, 4.0 μM cGMP substrate, 1 hour at R.T.
[5] = ratio of IC50 values, PDE1A versus PDE9A2, value greater than 1 = greater selectivity for PDE9A2
[6] = ratio of IC50 values, PDE1B versus PDE9A2, value greater than 1 = greater selectivity for PDE9A2
[7] = 4.0 μM cGMP substrate, 1 hour at R.T.
[8] = ratio of IC50 values PDE1A / PDE9A2, value greater than 1 = greater selectivity for PDE9A2
[9] = ratio of IC50 values PDE1B / PDE9A2, value greater than 1 = greater selectivity for PDE9A2
[10] = Table 1, 10 concentrations, 4.0 μM cGMP substrate, 1 hour at R.T.
[11] = Table 1, ratio of IC50 values, value greater than 1 indicates greater selectivity for PDE9A2
[12] = ratio of IC50 values, value greater than 1 indicates greater selectivity for PDE9A2
[13] = Table 2, 10 concentrations, 4.0 μM cGMP substrate, 1 hour at R.T.
[14] = Table 2, ratio of IC50 values, value greater than 1 indicates greater selectivity for PDE9A2

T3 sequence (Q01064 whole entry): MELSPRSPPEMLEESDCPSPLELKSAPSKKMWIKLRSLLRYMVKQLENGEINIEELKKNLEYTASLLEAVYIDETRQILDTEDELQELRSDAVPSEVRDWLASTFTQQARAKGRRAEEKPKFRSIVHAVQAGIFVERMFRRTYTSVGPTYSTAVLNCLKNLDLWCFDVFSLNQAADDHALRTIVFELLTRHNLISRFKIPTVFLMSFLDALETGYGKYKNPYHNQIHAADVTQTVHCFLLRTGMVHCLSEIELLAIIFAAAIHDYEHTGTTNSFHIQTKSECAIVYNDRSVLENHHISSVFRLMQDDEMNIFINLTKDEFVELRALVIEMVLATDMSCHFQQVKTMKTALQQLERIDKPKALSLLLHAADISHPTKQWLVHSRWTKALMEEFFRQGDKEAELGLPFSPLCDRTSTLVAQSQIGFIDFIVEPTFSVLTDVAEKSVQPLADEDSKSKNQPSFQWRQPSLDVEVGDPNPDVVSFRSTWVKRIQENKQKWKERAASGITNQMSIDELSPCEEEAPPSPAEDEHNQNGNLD
T2 sequence (P54750 whole entry): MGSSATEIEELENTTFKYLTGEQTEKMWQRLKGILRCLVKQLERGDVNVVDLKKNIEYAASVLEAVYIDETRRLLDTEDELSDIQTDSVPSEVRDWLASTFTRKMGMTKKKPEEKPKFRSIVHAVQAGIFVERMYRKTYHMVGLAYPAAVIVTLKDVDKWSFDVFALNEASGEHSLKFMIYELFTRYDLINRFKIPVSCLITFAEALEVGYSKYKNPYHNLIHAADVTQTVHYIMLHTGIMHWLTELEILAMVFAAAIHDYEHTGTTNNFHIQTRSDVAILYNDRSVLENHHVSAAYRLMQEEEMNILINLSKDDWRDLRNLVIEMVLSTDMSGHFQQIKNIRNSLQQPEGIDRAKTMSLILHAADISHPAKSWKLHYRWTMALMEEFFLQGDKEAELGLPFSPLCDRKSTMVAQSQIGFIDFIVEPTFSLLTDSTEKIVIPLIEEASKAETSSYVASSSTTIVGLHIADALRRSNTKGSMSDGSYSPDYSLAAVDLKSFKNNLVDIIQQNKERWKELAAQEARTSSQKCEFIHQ
T1 sequence (O76083 1-533 isoform O76083-2): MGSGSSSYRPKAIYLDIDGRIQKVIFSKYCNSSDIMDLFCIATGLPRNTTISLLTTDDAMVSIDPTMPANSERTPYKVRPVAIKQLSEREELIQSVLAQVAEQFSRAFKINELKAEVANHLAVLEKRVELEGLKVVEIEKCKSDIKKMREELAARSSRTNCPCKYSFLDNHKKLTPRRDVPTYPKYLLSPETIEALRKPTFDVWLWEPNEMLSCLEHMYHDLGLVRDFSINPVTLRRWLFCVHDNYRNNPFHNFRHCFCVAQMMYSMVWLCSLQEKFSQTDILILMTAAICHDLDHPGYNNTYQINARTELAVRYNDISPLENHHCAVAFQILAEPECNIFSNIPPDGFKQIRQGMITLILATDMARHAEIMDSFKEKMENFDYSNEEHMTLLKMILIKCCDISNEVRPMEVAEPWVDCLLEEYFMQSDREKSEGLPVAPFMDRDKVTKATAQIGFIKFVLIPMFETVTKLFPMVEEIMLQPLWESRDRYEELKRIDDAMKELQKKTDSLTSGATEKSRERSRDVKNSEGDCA

Compound: CC1CN(Cc2ccn(C)n2)CC1c1nn2c(C3CCOCC3)ncc2c(=O)[nH]1 (single isomer, unassigned; (+)) [(+)-2-((3,4-trans)-4-methyl-1-((1-methyl-1H-pyrazol-3-yl)methyl)pyrrolidin-3-yl)-7-(tetrahydro-2H-pyran-4-yl)imidazo[5,1-f][1,2,4]triazin-4(3H)-one]
- IC50 [1, 4]: < 1 µM
- PDE1A selectivity (versus PDE9A2) [2, 5]: 628
- PDE1B selectivity (versus PDE9A2) [3, 6]: 721

Compound: CC1CN(Cc2cnn(C)c2)CC1c1nn2c(C3CCOCC3)ncc2c(=O)[nH]1 (single isomer, unassigned; (+)) [(+)-2-((3,4-trans)-4-methyl-1-((1-methyl-1H-pyrazol-4-yl)methyl)pyrrolidin-3-yl)-7-(tetrahydro-2H-pyran-4-yl)imidazo[5,1-f][1,2,4]triazin-4(3H)-one]
- IC50 [1, 4]: < 1 µM
- PDE1A selectivity (versus PDE9A2) [2, 5]: 247
- PDE1B selectivity (versus PDE9A2) [3, 6]: 434

Compound: CC1CN(Cc2ccnn2C)CC1c1nn2c(C3CCOCC3)ncc2c(=O)[nH]1 (single isomer, unassigned; (+)) [(+)-2-((3,4-trans)-4-methyl-1-((1-methyl-1H-pyrazol-5-yl)methyl)pyrrolidin-3-yl)-7-(tetrahydro-2H-pyran-4-yl)imidazo[5,1-f][1,2,4]triazin-4(3H)-one]
- IC50 [1, 4]: < 1 µM
- PDE1A selectivity (versus PDE9A2) [2, 5]: 243
- PDE1B selectivity (versus PDE9A2) [3, 6]: 370

Compound: Cc1ncccc1CN1CC(C)C(c2nn3c(C4CCOCC4)ncc3c(=O)[nH]2)C1 (single isomer, unassigned; (+)) [(+)-2-((3,4-trans)-4-methyl-1-((2-methylpyridin-3-yl)methyl)pyrrolidin-3-yl)-7-(tetrahydro-2H-pyran-4-yl)imidazo[5,1-f][1,2,4]triazin-4(3H)-one]
- IC50 [1, 7]: < 1 µM
- PDE1A selectivity (versus PDE9A2) [2, 8]: 139
- PDE1B selectivity (versus PDE9A2) [3, 9]: 201

Compound: Cc1cc(CN2CC(C)C(c3nn4c(C5CCOCC5)ncc4c(=O)[nH]3)C2)ccn1 (single isomer, unassigned; (+)) [(+)-2-((3,4-trans)-4-methyl-1-((2-methylpyridin-4-yl)methyl)pyrrolidin-3-yl)-7-(tetrahydro-2H-pyran-4-yl)imidazo[5,1-f][1,2,4]triazin-4(3H)-one]
- IC50 [1, 7]: < 1 µM
- PDE1A selectivity (versus PDE9A2) [2, 8]: 232
- PDE1B selectivity (versus PDE9A2) [3, 9]: 421

Compound: Cc1nccc(CN2CC(C)C(c3nn4c(C5CCOCC5)ncc4c(=O)[nH]3)C2)n1 (single isomer, unassigned; (+)) [(+)-2-((3,4-trans)-4-methyl-1-((2-methylpyrimidin-4-yl)methyl)pyrrolidin-3-yl)-7-(tetrahydro-2H-pyran-4-yl)imidazo[5,1-f][1,2,4]triazin-4(3H)-one]
- IC50 [1, 10]: < 1 µM
- PDE1A selectivity (versus PDE9A2) [2, 11]: 184
- PDE1B selectivity (versus PDE9A2) [3, 11]: 400

Compound: Cc1ncc(CN2CC(C)C(c3nn4c(C5CCOCC5)ncc4c(=O)[nH]3)C2)cn1 (single isomer, unassigned; (+)) [(+)-2-((3,4-trans)-4-methyl-1-((2-methylpyrimidin-5-yl)methyl)pyrrolidin-3-yl)-7-(tetrahydro-2H-pyran-4-yl)imidazo[5,1-f][1,2,4]triazin-4(3H)-one]
- IC50 [1, 10]: < 1 µM
- PDE1A selectivity (versus PDE9A2) [2, 11]: 80
- PDE1B selectivity (versus PDE9A2) [3, 11]: 60

Compound: Cc1nc(CN2CC(C)C(c3nn4c(C5CCOCC5)ncc4c(=O)[nH]3)C2)cs1 (single isomer, unassigned; (+)) [(+)-2-((3,4-trans)-4-methyl-1-((2-methylthiazol-4-yl)methyl)pyrrolidin-3-yl)-7-(tetrahydro-2H-pyran-4-yl)imidazo[5,1-f][1,2,4]triazin-4(3H)-one]
- IC50 [1]: < 1 µM
- PDE1A selectivity (versus PDE9A2) [2, 12]: 12
- PDE1B selectivity (versus PDE9A2) [3, 12]: 19

Compound: Cc1ncc(CN2CC(C)C(c3nn4c(C5CCOCC5)ncc4c(=O)[nH]3)C2)s1 (single isomer, unassigned; (+)) [(+)-2-((3,4-trans)-4-methyl-1-((2-methylthiazol-5-yl)methyl)pyrrolidin-3-yl)-7-(tetrahydro-2H-pyran-4-yl)imidazo[5,1-f][1,2,4]triazin-4(3H)-one]
- IC50 [1, 10]: < 1 µM
- PDE1A selectivity (versus PDE9A2) [2, 11]: 129
- PDE1B selectivity (versus PDE9A2) [3, 11]: 243

Compound: CC1CN(Cc2ccc[nH]c2=O)CC1c1nn2c(C3CCOCC3)ncc2c(=O)[nH]1 (single isomer, unassigned; (+)) [(+)-2-((3,4-trans)-4-methyl-1-((2-oxo-1,2-dihydropyridin-3-yl)methyl)pyrrolidin-3-yl)-7-(tetrahydro-2H-pyran-4-yl)imidazo[5,1-f][1,2,4]triazin-4(3H)-one]
- IC50 [1, 10]: < 1 µM
- PDE1A selectivity (versus PDE9A2) [2, 11]: 424
- PDE1B selectivity (versus PDE9A2) [3, 11]: 940

Compound: CC1CN(Cc2ncccc2C(F)(F)F)CC1c1nn2c(C3CCOCC3)ncc2c(=O)[nH]1 (single isomer, unassigned; (+)) [(+)-2-((3,4-trans)-4-methyl-1-((3-(trifluoromethyl)pyridin-2-yl)methyl)pyrrolidin-3-yl)-7-(tetrahydro-2H-pyran-4-yl)imidazo[5,1-f][1,2,4]triazin-4(3H)-one]
- IC50 [1, 4]: < 1 µM
- PDE1A selectivity (versus PDE9A2) [2, 5]: 123
- PDE1B selectivity (versus PDE9A2) [3, 6]: 58

Compound: Cc1cccnc1CN1CC(C)C(c2nn3c(C4CCOCC4)ncc3c(=O)[nH]2)C1 (single isomer, unassigned; (+)) [(+)-2-((3,4-trans)-4-methyl-1-((3-methylpyridin-2-yl)methyl)pyrrolidin-3-yl)-7-(tetrahydro-2H-pyran-4-yl)imidazo[5,1-f][1,2,4]triazin-4(3H)-one]
- IC50 [1, 4]: < 1 µM
- PDE1A selectivity (versus PDE9A2) [2, 5]: 242
- PDE1B selectivity (versus PDE9A2) [3, 6]: 298

Compound: CC1CN(Cc2cnn3c2CCCC3)CC1c1nn2c(C3CCOCC3)ncc2c(=O)[nH]1 (single isomer, unassigned; (+)) [(+)-2-((3,4-trans)-4-methyl-1-((4,5,6,7-tetrahydropyrazolo[1,5-a]pyridin-3-yl)methyl)pyrrolidin-3-yl)-7-(tetrahydro-2H-pyran-4-yl)imidazo[5,1-f][1,2,4]triazin-4(3H)-one]
- IC50 [1]: < 1 µM
- PDE1A selectivity (versus PDE9A2) [2, 12]: 337
- PDE1B selectivity (versus PDE9A2) [3, 12]: 337

Compound: CC1CN(Cc2nccc(C(F)(F)F)n2)CC1c1nn2c(C3CCOCC3)ncc2c(=O)[nH]1 (single isomer, unassigned; (+)) [(+)-2-((3,4-trans)-4-methyl-1-((4-(trifluoromethyl)pyrimidin-2-yl)methyl)pyrrolidin-3-yl)-7-(tetrahydro-2H-pyran-4-yl)imidazo[5,1-f][1,2,4]triazin-4(3H)-one]
- IC50 [1, 13]: < 1 µM
- PDE1A selectivity (versus PDE9A2) [2, 14]: 585
- PDE1B selectivity (versus PDE9A2) [3, 14]: 566

Compound: Cc1ccnc(CN2CC(C)C(c3nn4c(C5CCOCC5)ncc4c(=O)[nH]3)C2)c1 (single isomer, unassigned; (+)) [(+)-2-((3,4-trans)-4-methyl-1-((4-methylpyridin-2-yl)methyl)pyrrolidin-3-yl)-7-(tetrahydro-2H-pyran-4-yl)imidazo[5,1-f][1,2,4]triazin-4(3H)-one]
- IC50 [1, 7]: < 1 µM
- PDE1A selectivity (versus PDE9A2) [2, 8]: 143
- PDE1B selectivity (versus PDE9A2) [3, 9]: 116

Compound: Cc1ccnc(CN2CC(C)C(c3nn4c(C5CCOCC5)ncc4c(=O)[nH]3)C2)n1 (single isomer, unassigned; (+)) [(+)-2-((3,4-trans)-4-methyl-1-((4-methylpyrimidin-2-yl)methyl)pyrrolidin-3-yl)-7-(tetrahydro-2H-pyran-4-yl)imidazo[5,1-f][1,2,4]triazin-4(3H)-one]
- IC50 [1, 13]: < 1 µM
- PDE1A selectivity (versus PDE9A2) [2, 14]: 182
- PDE1B selectivity (versus PDE9A2) [3, 14]: 220

Compound: CC1CN(Cc2ncc(N3CCCC3)cn2)CC1c1nn2c(C3CCOCC3)ncc2c(=O)[nH]1 (single isomer, unassigned; (+)) [(+)-2-((3,4-trans)-4-methyl-1-((5-(pyrrolidin-1-yl)pyrimidin-2-yl)methyl)pyrrolidin-3-yl)-7-(tetrahydro-2H-pyran-4-yl)imidazo[5,1-f][1,2,4]triazin-4(3H)-one]
- IC50 [1, 13]: < 1 µM
- PDE1A selectivity (versus PDE9A2) [2, 14]: 105
- PDE1B selectivity (versus PDE9A2) [3, 14]: 496

Compound: CC1CN(Cc2ccc(C(F)(F)F)cn2)CC1c1nn2c(C3CCOCC3)ncc2c(=O)[nH]1 (single isomer, unassigned; (+)) [(+)-2-((3,4-trans)-4-methyl-1-((5-(trifluoromethyl)pyridin-2-yl)methyl)pyrrolidin-3-yl)-7-(tetrahydro-2H-pyran-4-yl)imidazo[5,1-f][1,2,4]triazin-4(3H)-one]
- IC50 [1, 4]: < 1 µM
- PDE1A selectivity (versus PDE9A2) [2, 5]: 258
- PDE1B selectivity (versus PDE9A2) [3, 6]: 560

From patent US9969742B2, “Imidazotriazinone compounds” (Ironwood Pharmaceuticals, Inc., priority 2012, dated 2018)
